Measurements: patent US11160881B2, “Dendrimer compositions for use in angiography” (The Johns Hopkins University, priority 2017, dated 2021)

System: leaky retinal blood vessels
Test: Fundus fluorescence angiogram imaging in lipid injected rat CNV model
Assay type: in vivo, brown Norway rats
Conditions: 5 mg/kg, imaging on day 21 after lipid injection, 488 filter
Experimental: White arrows indicate precise location of retinal leakage identified by D-FITC nanoparticles.
Dendrimer fluorescent probes were investigated for their application in longitudinal imaging of retinal inflammation and oxidative stress. […] Lipid was injected in brown Norway rats via subretinal injection at day 0 and the fluorescence angiogram imaging was performed on day 21. The rats were anesthetized and administered with sodium fluorescein or D-FITC (5 mg/kg) and the rats were imaged under Micron-3 fundus microscope using a 488 filter at different time points (10 mins, 1 hr and 4 hrs). […] Free FITC perfuses and clears from the retina quickly within 1 hr. At early time points (10 mins) post injection free FITC leaked from the retinal blood vessels (FIG. 2, white arrows) in the areas of inflammation causing fluorescence background thereby making in unclear the exact location of the leaky blood vessels.

O=C1OC2(c3ccc(O)cc3Oc3cc(O)ccc32)c2ccccc21 [free FITC, sodium fluorescein]
time to clearance from the retina: ≤ 1 h
